Test results: ChEMBL document CHEMBL4049450, “Discovery of 5-Azaindazole (GNE-955) as a Potent Pan-Pim Inhibitor with Optimized Bioavailability” (J Med Chem, 2017)
Converted amounts (≈) assume the structure as drawn.

Columns and labels:
[1] = Metabolic stability in rat intestinal microsomes assessed as compound remaining after 60 mins in presence of NADPH/UDPGA; assay type: ADME, Intestine, Microsome; conditions: intestinal microsomes, read-out: Stability
[2] = Metabolic stability in rat intestinal microsomes assessed as compound remaining after 60 mins in presence of NADPH; assay type: ADME, Intestine, Microsome; conditions: read-out: Stability
[3] = Metabolic stability in rat intestinal microsomes assessed as compound remaining after 60 mins in absence of NADPH/UDPGA; assay type: ADME, Intestine, Microsome; conditions: for remaining at 1 h: intestinal microsomes, read-out: Stability
[4] = target: Serine/threonine-protein kinase pim-1 (Homo sapiens, UniProt P11309); test: Inhibition of PIM1 (unknown origin) using 5FAM-ARKRRRHPSGPPTA as substrate after 90 mins in presence of ATP by caliper microfluidic mobility shift assay
Chain of Serine/threonine-protein kinase pim-1 (P11309 whole entry): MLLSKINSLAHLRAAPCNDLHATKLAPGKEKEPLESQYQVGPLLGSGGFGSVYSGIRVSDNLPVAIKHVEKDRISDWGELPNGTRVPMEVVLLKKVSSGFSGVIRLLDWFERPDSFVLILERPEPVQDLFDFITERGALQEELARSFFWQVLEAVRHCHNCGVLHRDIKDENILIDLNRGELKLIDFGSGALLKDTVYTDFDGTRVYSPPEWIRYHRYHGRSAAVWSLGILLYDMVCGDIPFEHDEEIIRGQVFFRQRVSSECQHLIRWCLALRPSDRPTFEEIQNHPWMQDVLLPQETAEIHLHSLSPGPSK

[5] = target: Serine/threonine-protein kinase pim-2 (Homo sapiens, UniProt Q9P1W9); test: Inhibition of PIM2 (unknown origin) using 5FAM-ARKRRRHPSGPPTA as substrate after 90 mins in presence of ATP by caliper microfluidic mobility shift assay
Chain of Serine/threonine-protein kinase pim-2 (Q9P1W9 whole entry): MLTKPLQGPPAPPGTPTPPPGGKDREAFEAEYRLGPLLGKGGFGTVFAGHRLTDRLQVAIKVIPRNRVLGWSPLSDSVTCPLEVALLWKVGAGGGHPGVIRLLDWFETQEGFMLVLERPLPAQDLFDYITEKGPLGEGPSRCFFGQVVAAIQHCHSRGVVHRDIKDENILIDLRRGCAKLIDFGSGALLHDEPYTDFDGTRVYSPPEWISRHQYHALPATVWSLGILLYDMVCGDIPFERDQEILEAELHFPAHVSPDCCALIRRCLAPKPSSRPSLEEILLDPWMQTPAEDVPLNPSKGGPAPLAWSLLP

[6] = Metabolic stability in rat intestinal microsomes assessed as compound remaining after 60 mins in presence of UDPGA; assay type: ADME, Intestine, Microsome; conditions: read-out: Stability
[7] = target: Serine/threonine-protein kinase pim-3 (Homo sapiens, UniProt Q86V86); test: Inhibition of PIM3 (unknown origin) using 5FAM-ARKRRRHPSGPPTA as substrate after 90 mins in presence of ATP by caliper microfluidic mobility shift assay
[8] = Clearance in rat liver microsomes; assay type: ADME, microsome
[9] = Kinetic solubility of compound at pH 7.4; conditions: buffer
[10] = Oral bioavailability in rat at 5 mg/kg; assay type: ADME, organism-based; conditions: in vivo
[11] = Clearance in rat hepatocytes; assay type: ADME, cell-based, Hepatocyte
[12] = Clearance in rat at 1 mg/kg, iv; assay type: ADME, organism-based; conditions: in vivo

SMILES | remaining at 1 h [1] | remaining at 1 h [2] | remaining at 1 h [3] | Ki [4] | Ki [5] | remaining at 1 h [6] | Ki [7] | CLhep predicted [8] | solubility kinetic [9] | bioavailability [10] | Stability ([3]; microsomes, 1 h) | CLhep predicted [11] | clearance [12]
Cc1cncc(-c2cc3c(-c4cccc(N5CCCNCC5)n4)nsc3cn2)n1 | 98% | 101% | 101% | 0.7 nM | 18 nM | 91% | 1 nM |  |  |  |  |  | 
Cc1cncc(-c2cnc3cnn(-c4cccc(N5CCCNCC5)n4)c3c2)n1 | 76% | 100% | 87% | 0.8 nM | 13 nM | 79% | 0.4 nM |  |  |  |  |  | 
Cn1cc(-c2cc3c(-c4cccc(N5CCC[C@H](N)C5)n4)nn(C)c3cn2)cn1 | 102% | 91% | 95% | 38 nM | 170 nM | 92% | 23 nM |  |  |  |  |  | 
Cn1nc(-c2cccc(N3CCC[C@H](N)C3)n2)c2cc(-c3cccnc3)ncc21 | 62% | 59% | 96% | 190 nM | 630 nM | 103% | 120 nM |  |  |  |  |  | 
Cc1cncc(-c2ccc3cnn(-c4cccc(N5CCCNCC5)n4)c3c2)n1 | 101% | 84% | 91% | 0.4 nM | 7.9 nM | 100% | 0.2 nM |  |  |  |  |  | 
Cc1cncc(-c2cc3c(cnn3-c3cccc(N4CCCNCC4)n3)nn2)n1 | 80% | 118% | 103% | 0.02 nM | 0.48 nM | 81% | 0.03 nM |  |  |  |  |  | 
Cn1cc(-c2cc3c(-c4cccc(N5CCC[C@H](N)C5)n4)n[nH]c3cn2)cn1 | 69% | 86% | 87% |  | 0.2 nM | 67% | 0.02 nM |  |  |  |  |  | 
CCn1cc(-c2cc3c(-c4cccc(N5CCOCC5)n4)n[nH]c3cn2)cn1 | 0.4% | 89% | 77% |  | 4 nM | 0.2% | 0.2 nM |  |  |  |  |  | 
N[C@H]1CCCN(c2cccc(-c3n[nH]c4cnc(-c5cccnc5)cc34)n2)C1 | 26% | 34% | 93% | 0.04 nM | 0.2 nM | 48% | 0.02 nM |  |  |  |  |  | 
Cc1cncc(-c2cc3c(ccn3-c3cccc(N4CCCNCC4)n3)cn2)n1 | 102% | 100% | 98% | 0.5 nM | 9.6 nM | 104% | 0.8 nM |  |  |  |  |  | 
Cc1cncc(-c2cc(F)c3cnn(-c4cccc(N5CCCNCC5)n4)c3c2)n1 | 98% | 107% | 108% | 450 nM | 7400 nM | 103% | 270 nM |  |  |  |  |  | 
Cc1cncc(-c2cn3c(-c4cccc(N5CCCNCC5)n4)ncc3cn2)n1 | 66% | 111% | 106% | 0.5 nM | 16 nM | 69% | 0.4 nM |  |  |  |  |  | 
CN1CCN(c2cc3c(-c4cccc(N5CCNCC5)n4)n[nH]c3cn2)CC1=O | 42% | 120% |  |  |  | 56% |  | 31 mL/min/kg | 93.4 µM (≈ 36.7 µg/mL) | 1.4% | 130% | 18 mL/min/kg | 19 mL/min/kg
CCn1cc(-c2cc3c(-c4cccc(N5CCN(C)CC5)n4)n[nH]c3cn2)cn1 | 0.4% | 91% | 82% | 0.3 nM | 3 nM | 0.4% | 0.1 nM |  |  |  |  |  | 
